In US10208082B2, “Sustained-release pharmaceutical composition for treatment and prevention of eye disease” (Daiichi Sankyo Company, Limited, priority 2014, dated 2019):

Assays:
[1] = tested on: NQO1; assay: NQO1 assay in Hepa1c1c7 cells; format: cell-based, mouse; conditions: approximately 48 hours culture, mean of 3 wells
Description: Hepa1c1c7 cells (mouse hepatic cell line, ATCC, catalog No. CRL-2026) were cultured (5% CO2, 37° C.). A DMEM (Life Technologies Japan Ltd., catalog No. 11965-092) medium also containing 10% inactivated FBS was used. The medium contained 100 units/mL (final concentration) penicillin and […] (final concentration) streptomycin. The NQO1 assay was conducted according to previous reports (Anal Biochem 1998; 169: 328; and Methods Enzymol 2004; 382: 243).
The Hepa1c1c7 cells were seeded at 10000 cells/well in a 96-well plate. Approximately 24 hours later, the medium was replaced with a medium containing terpenoid derivative (III), terpenoid derivative (I), or terpenoid derivative (II), and the culture was further performed for approximately 48 hours. A lysis solution (a solution containing 2 mM EDTA and 0.8% digitonin), a reaction solution (a solution containing 0.025 M of tris-HCl, 0.067% of albumin, 0.01% of Tween-20, 2 U/mL of glucose-6-phosphate dehydrogenase, 5 μM of flavin adenine dinucleotide, 1 […], 30 μM of nicotinamide adenine dinucleotide phosphate, 0.03% of 3-(4, 5-dimethyl-2-thiazolyl)-2,5-diphenyltetrazolium bromide (MTT), and 50 μM of menadione), and a stop solution (a solution containing 0.3 mM dicumarol and 5 mM potassium dihydrogen phosphate, pH 7.4) were prepared. After removal of the medium, 50 μL of the lysis solution was added thereto, and the mixture was left standing at 37° C. for 10 minutes. The reaction mixture was further shaken at room temperature for 10 minutes.
Two hundred uL of the solution was added thereto, and the mixture was left standing at room temperature for 5 minutes. Fifty μL of the stop solution was added thereto, and the absorbance at 490 nm was measured.
The test results were analyzed using Prism (GraphPad Software, Inc., Ver. 5) to calculate the CD value (concentration of double NQO1 activity) of the concentration at which the activity of NQO1 was increased 2-fold. Each group consisted of 3 wells and indicated as a mean of CD values. […]

[2] = Pharmacokinetic test of microspheres containing terpenoid derivative (III) in rabbit eye; format: in vivo; conditions: male, Kbl:NZW (white rabbit), intravitreal fluid, other: intravitreal, mean of 4 eyes and SD
Description: Suspensions were prepared using each of terpenoid derivative (III) of the present invention, terpenoid derivative (III) of the present invention-PLA-0005 [prepared by using PLA-0005 as the base material and adjusting the mixing ratio of terpenoid derivative (III) of the present invention and PLA-0005 to 1:9], and terpenoid derivative (III) of the present invention-PLA-0020 [prepared by using PLA-0020 as the base material and adjusting the mixing ratio of terpenoid derivative (III) of the present invention and PLA-0020 to 1:9], and saline as a solvent such that the concentration of terpenoid derivative (III) was 3 mM.
50 μL each of the suspensions was intravitreally administered to each white rabbit (Oriental Yeast Co., Ltd., Kbl:NZW, male, 8 weeks old). After the intravitreal administration, the rabbit was euthanized, and the intravitreal fluid and the retina were sampled. The concentration of terpenoid derivative (III) contained in these samples was measured. The numeric values shown in Table 12 below are indicated by a mean from 4 eyes and standard deviation. The drug concentration in each tissue was measured by LC/MS/MS. The tissue was pretreated by dilution with purified water in an amount corresponding to 10 times the weight of the tissue and subsequent homogenization to obtain a measurement sample. A water/acetonitrile (1:1) solution containing an internal standard solution (IS; niflumic acid) was added to the obtained sample to extract the drug. Then, the solution was filtered through a filter and injected to LC/MS/MS.
The LC/MS/MS conditions were as follows: • <UPLC conditions>: Waters Acquity UPLC • analysis column: ACQUITY UPLC BEH C18 1.7 μm • column temperature: 50° C. • mobile phase A: 95% acetonitrile (5 mM ammonium acetate) • mobile phase B: 5% acetonitrile (5 mM ammonium acetate).
• <MS/MS conditions>: analysis apparatus API4000 • Ionization mode: ESI • Ion polarity mode: Positive • Monitor Ion • terpenoid derivative (III) (Precursor ion (m/z): 538.5, Product ion (m/z): 460) • IS (Precursor ion (m/z): 283.2, Product ion (m/z): 265).

Row | SMILES | CD value (concentration of double NQO1 activity) [1] [nM] | concentration at 1 day ([2]; Day 1, intravitreal 50 μL of 3 mM suspension) [nM] | concentration at 2 day ([2]; Day 2, intravitreal 50 μL of 3 mM suspension) [nM] | concentration at 7 day ([2]; Day 7, intravitreal 50 μL of 3 mM suspension) [nM]
1 | COC(=O)[C@@]12CC[C@]3(C)[C@H](C(=O)C=C4[C@@]5(C)C=C(C#N)C(=O)C(C)(C)[C@@H]5CC[C@]43C)[C@@H]1CC(C)(C)[C@@H](O)C2 [terpenoid derivative (I)] | 0.3 | – | – | –
2 | COC(=O)[C@@]12CC[C@]3(C)[C@H](C(=O)C=C4[C@@]5(C)[C@H]6O[C@@]6(C#N)C(=O)C(C)(C)[C@@H]5CC[C@]43C)[C@@H]1CC(C)(C)[C@H](O)C2 [terpenoid derivative (II)] | 0.1 | – | – | –
3 | COC(=O)[C@@]12CC[C@]3(C)[C@H](C(=O)C=C4[C@@]5(C)[C@H]6O[C@@]6(C#N)C(=O)C(C)(C)[C@@H]5CC[C@]43C)[C@@H]1CC(C)(C)[C@@H](O)C2 [terpenoid derivative (III)] | 1.0 | 79700 ± 22100 | 0.1 | 0.1
